Experimental data taken from article PMC4878759 (PLoS ONE, 2016).

Experiments:
ANO1 [1] = target: T1, ANO1 (Homo sapiens, UniProt Q5XXA6, DEL476-501); experiment: Apical membrane current in ANO1 expressing FRT cells; format: cell-based; conditions: 100 μM ATP
T1 construct: expressed in transfected cells
T1 sequence (Q5XXA6 with tags, fused parts or gaps isoform Q5XXA6-5 DEL539-564): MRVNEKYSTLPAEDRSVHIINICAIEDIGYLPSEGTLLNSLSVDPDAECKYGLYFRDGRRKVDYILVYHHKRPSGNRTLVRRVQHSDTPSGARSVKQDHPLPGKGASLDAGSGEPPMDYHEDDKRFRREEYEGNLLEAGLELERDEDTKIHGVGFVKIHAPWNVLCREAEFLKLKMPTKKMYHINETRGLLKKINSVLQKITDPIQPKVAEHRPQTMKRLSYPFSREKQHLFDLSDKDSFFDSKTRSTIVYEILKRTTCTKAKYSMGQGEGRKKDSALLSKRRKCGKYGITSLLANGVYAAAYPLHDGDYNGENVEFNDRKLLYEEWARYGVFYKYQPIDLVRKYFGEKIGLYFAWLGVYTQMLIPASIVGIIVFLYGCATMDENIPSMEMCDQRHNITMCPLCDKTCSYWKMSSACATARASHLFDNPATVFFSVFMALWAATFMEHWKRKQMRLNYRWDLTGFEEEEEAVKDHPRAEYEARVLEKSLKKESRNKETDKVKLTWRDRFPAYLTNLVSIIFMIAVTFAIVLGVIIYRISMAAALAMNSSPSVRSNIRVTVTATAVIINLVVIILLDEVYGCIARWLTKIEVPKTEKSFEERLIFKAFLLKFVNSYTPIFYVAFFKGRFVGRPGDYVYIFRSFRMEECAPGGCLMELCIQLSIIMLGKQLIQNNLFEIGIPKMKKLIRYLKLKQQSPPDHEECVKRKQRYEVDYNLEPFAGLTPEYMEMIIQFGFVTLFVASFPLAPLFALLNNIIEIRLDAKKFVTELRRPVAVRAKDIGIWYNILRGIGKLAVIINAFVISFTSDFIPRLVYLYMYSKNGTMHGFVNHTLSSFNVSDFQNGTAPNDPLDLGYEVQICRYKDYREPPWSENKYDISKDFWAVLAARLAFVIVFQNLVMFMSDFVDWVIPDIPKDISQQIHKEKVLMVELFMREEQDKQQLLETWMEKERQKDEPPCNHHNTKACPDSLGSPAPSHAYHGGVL
Experimental: (§1) Snapwell inserts containing ANO1, ANO2 or CFTR expressing FRT cells, ENaC expressing T-84 cells or the human primary airway epithelial cells were mounted in Ussing chambers (Physiologic Instruments, San Diego, CA). To induce transcriptional ENaC induction, the polarized T84 cells were incubated with 2 mM sodium butyrate for 2 days. To increase the functional expression of ANO1, the human airway epithelial cells were treated with IL-4 (10 ng/mL) for 2 days. For T-84 and the human primary airway epithelial cells, the apical and basolateral bath were filled with HCO3^—buffered solution containing (in mM): 120 NaCl, 5 KCl, 1 MgCl2, 1 CaCl2, 10 D-glucose, 2.5 HEPES, and 25 NaHCO3 (pH 7.4). For FRT cells, the basolateral bath was filled with the HCO3^—buffered solution and the apical bath was filled with a half-Cl^- solution. In the half-Cl^- solution 65 mM NaCl in the HCO3^—buffered solution was replaced by Na-gluconate. […] ATP was applied to the apical bath solution to induce intracellular calcium increase. […] Apical membrane currents were measured with an EVC4000 Multi-Channel V/I Clamp (World Precision Instruments, Sarasota, FL) and PowerLab 4/35 (AD Instruments, Castle Hill, Australia). Data were analyzed using Labchart Pro 7 (AD Instruments). The sampling rate was 4 Hz.

VRAC [2] = experiment: VRAC activity by YFP quenching in LN215 cells; format: cell-based, human; conditions: 10 μM
Experimental: LN215 cells, a human glioma cell line, were stably transfected with YFP-F46L/H148Q/I152L, a halide sensor YFP. After the cells were incubated on 96well black plates (Corning Inc., Corning, NY) for 48 hours, each well of the 96-well plate was washed 3 times in PBS (200 μL/wash), and the wells were filled with 50 μl/well isotonic solution (in mM): 140 NaCl, 5 KCl, 20 HEPES (310 mOsm/kg; pH 7.4 with NaOH). In each well, VRAC expressed on the cells were stimulated with addition of 50 μl of hypotonic solutions (in mM): 5 KCl, 20 HEPES, 90 mannitol (120 mOsm/kg). Test compounds (1 μL) were added to each well in a dose dependent manner. After 5 min, 96-well plates were transferred to a plate reader for fluorescence assay. Each well was assayed individually for VRAC-mediated I^- influx by recording fluorescence continuously (400 ms per point) for 7.6 s. YFP fluorescence was recorded 0.4 s for baseline, then 100 μL of 140 mM I^- solution was added at 0.4 s to see the change in fluorescence. Initial iodide influx rate was determined from the initial slope of fluorescence decrease, by nonlinear regression, following infusion of iodide.

mouse ANO2 = target: T2, mouse ANO2 (Mus musculus, UniProt Q8CFW1); experiment: YFP quenching assay in FRT cells expressing ANO2; format: cell-based; conditions: dose dependent, 100 μM ATP
T2 sequence (Q8CFW1 1-1002): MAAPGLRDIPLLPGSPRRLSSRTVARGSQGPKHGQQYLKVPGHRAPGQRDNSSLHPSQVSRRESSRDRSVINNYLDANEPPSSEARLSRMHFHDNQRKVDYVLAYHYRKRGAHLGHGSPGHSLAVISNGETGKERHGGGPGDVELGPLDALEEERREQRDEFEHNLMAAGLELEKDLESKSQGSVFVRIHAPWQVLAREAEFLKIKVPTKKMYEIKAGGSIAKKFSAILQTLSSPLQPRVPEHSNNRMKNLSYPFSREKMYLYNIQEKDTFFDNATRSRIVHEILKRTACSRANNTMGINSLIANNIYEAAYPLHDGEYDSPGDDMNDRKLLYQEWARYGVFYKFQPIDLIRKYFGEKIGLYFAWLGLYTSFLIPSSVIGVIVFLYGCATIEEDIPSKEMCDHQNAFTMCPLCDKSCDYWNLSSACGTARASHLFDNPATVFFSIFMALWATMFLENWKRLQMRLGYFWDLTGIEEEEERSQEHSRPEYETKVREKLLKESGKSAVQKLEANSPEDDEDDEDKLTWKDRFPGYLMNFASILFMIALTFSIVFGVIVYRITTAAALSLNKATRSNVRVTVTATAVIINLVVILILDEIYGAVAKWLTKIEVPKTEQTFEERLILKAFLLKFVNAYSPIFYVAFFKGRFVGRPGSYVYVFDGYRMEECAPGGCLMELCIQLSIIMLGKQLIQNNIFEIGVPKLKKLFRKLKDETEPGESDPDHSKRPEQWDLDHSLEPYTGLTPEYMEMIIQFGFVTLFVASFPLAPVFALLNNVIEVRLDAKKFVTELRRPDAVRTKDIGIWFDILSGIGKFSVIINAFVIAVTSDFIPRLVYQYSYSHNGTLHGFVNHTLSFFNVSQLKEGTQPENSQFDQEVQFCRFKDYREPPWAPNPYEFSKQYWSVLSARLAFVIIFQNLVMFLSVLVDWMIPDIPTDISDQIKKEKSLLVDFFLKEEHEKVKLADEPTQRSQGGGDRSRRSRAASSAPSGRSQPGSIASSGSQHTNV

ANO2 = target: T3, ANO2 (Mus musculus, UniProt Q8CFW1); experiment: Apical membrane current in FRT-ANO2 cells; format: cell-based; conditions: 10 μM pretreatment
T3 sequence (Q8CFW1 1-1002): T2 sequence (Q8CFW1 1-1002)
Experimental: as §1
ANO1 belongs to anoctamin gene family which contains ten members presenting eight-pass transmembrane segments with cytosolic N- and C-terminals. ANO2 shares a high level of amino acid homology to ANO1 (~60%) and, ANO1 and ANO2 are confirmed CaCCs. However, the roles of other family members (ANO3-ANO10) remain poorly understood and controversial. […] We investigated the effect of these inhibitors on ANO2-mediated apical membrane current in FRT-ANO2 cells.

ANO1 [3] = test system: ANO1; set-up: method as in PMID 25739000; conditions: spontaneously hypertensive rats (SHRs) ref [8]; cited from earlier work
ANO1 [4] = test system: ANO1; set-up: method as in PMID 25848051; conditions: mice ref [14]; cited from earlier work
VRAC [5] = test system: VRAC; set-up: method as in PMID 24965069, PMID 25163766, PMID 26438191; conditions: ref [26]–[28]; cited from earlier work
CaCCs in NHNE cells = target: T4, CaCCs in NHNE cells (Homo sapiens, UniProt Q5XXA6); experiment: Short-circuit current of CaCC in IL-4 treated NHNE cells; format: cell-based; conditions: 100 μM
T4 sequence (Q5XXA6 1-986): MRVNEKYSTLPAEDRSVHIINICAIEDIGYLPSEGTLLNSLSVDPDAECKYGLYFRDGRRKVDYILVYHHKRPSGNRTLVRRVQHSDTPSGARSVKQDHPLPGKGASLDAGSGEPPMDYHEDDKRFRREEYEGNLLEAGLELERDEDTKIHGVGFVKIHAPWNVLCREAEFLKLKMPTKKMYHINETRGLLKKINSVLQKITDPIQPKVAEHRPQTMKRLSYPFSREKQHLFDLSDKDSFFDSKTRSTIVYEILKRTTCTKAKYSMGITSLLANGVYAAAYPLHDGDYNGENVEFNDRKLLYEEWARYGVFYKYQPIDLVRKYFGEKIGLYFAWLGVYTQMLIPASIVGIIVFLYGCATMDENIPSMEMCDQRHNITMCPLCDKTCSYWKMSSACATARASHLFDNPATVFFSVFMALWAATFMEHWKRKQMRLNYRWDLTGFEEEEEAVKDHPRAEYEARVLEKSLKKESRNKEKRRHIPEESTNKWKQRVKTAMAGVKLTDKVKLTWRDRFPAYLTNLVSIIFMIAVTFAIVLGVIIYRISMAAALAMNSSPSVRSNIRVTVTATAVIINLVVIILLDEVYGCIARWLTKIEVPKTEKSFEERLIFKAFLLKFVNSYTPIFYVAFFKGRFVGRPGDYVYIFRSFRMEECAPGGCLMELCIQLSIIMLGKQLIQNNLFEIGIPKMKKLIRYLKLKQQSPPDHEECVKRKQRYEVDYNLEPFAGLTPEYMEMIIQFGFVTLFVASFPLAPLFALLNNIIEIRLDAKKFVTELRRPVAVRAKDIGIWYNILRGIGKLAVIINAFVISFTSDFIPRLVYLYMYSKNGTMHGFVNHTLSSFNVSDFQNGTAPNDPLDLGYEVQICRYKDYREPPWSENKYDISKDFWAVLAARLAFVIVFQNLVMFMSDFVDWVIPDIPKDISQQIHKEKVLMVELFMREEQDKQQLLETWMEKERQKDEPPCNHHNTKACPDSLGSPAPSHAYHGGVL
Experimental: Snapwell inserts containing ANO1, ANO2 or CFTR expressing FRT cells, ENaC expressing T-84 cells or the human primary airway epithelial cells were mounted in Ussing chambers (Physiologic Instruments, San Diego, CA). To induce transcriptional ENaC induction, the polarized T84 cells were incubated with 2 mM sodium butyrate for 2 days. To increase the functional expression of ANO1, the human airway epithelial cells were treated with IL-4 (10 ng/mL) for 2 days. For T-84 and the human primary airway epithelial cells, the apical and basolateral bath were filled with HCO3^—buffered solution containing (in mM): 120 NaCl, 5 KCl, 1 MgCl2, 1 CaCl2, 10 D-glucose, 2.5 HEPES, and 25 NaHCO3 (pH 7.4). For FRT cells, the basolateral bath was filled with the HCO3^—buffered solution and the apical bath was filled with a half-Cl^- solution. In the half-Cl^- solution 65 mM NaCl in the HCO3^—buffered solution was replaced by Na-gluconate. […] ATP was applied to the apical bath solution to induce intracellular calcium increase. […] Apical membrane currents were measured with an EVC4000 Multi-Channel V/I Clamp (World Precision Instruments, Sarasota, FL) and PowerLab 4/35 (AD Instruments, Castle Hill, Australia). Data were analyzed using Labchart Pro 7 (AD Instruments). The sampling rate was 4 Hz. […]

| Compound | inhibition of ATP-induced ANO1 current (ANO1 [1]; 10 μM pretreatment) | IC50 (ANO1 [1]; apical membrane current, 20 min pretreatment, read-out: IC50 of ATP-induced ANO1 activation) | inhibition of VRAC activity (VRAC [2]) | effect on ANO2 activity (mouse ANO2) | effect on ATP-induced ANO2 current (ANO2) | effect on BP (ANO1 [3]) | effect on capsaicin-evoked pain-related behaviors (ANO1 [4]) | block of VRAC activity (VRAC [5]) | effect on remaining CaCCs currents (CaCCs in NHNE cells) |
| --- | --- | --- | --- | --- | --- | --- | --- | --- | --- |
| CCc1c(C)nc(SCC(=O)Nc2nc(-c3ccc(OC)cc3)cs2)[nH]c1=O [Ani T16Ainh-A01] | almost complete inhibition | 1390 ± 590 nM | 71.2 ± 1.6% | potently blocked | strongly blocked | significantly reduced | significantly reduced | potently blocked | – |
| tannic acid | – | – | – | – | – | – | – | – | abolished |
